Series [1] in a line: solubility in sodium phosphate buffer. It is filed as physicochemical. Conditions: pH 7.4, aqueous buffer, kinetic from dmso stock.
The target of series [2] is T1, human sEH (Homo sapiens, UniProt P34913).
T1 sequence (P34913 1-555): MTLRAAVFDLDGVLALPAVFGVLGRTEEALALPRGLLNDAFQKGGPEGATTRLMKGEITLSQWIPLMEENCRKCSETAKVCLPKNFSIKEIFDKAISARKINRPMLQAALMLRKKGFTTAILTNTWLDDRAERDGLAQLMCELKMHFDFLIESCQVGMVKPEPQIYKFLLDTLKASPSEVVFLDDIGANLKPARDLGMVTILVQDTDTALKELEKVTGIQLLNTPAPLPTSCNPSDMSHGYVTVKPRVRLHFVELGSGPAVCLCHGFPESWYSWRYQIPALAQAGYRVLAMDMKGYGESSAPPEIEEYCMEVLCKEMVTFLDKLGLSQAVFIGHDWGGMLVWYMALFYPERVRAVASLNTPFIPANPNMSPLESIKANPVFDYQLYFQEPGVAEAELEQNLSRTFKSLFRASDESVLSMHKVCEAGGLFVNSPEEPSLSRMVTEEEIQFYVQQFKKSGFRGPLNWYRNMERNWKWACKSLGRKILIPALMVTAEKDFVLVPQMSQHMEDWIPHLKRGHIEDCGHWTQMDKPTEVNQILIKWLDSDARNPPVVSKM
As to the kind of experiment: kinetic fluorescent assay of sEH inhibitory potency. It is filed as biochemical. The settings on record: for fold drop of activity compared to 3a: ratio of IC50 to that of 3a; for fold increase of activity compared to 3a: ratio of IC50 of 3a to that of the compound.

Series [3] in a line: experimental LogP by HPLC-MS. It is filed as physicochemical.

The results in this text go back to publication PMC7055688 (Journal of fluorine chemistry, 2019).

≈ marks a conversion by molar mass, not a printed value.

One may read the solubility as how much of the substance goes into solution per volume. Low values mean little dissolved substance, high ones much dissolved substance. In general, chromatographic logP refers to a lipophilicity value derived from retention on a column.

In series [1], `O=C(Nc1ccccc1F)NC12CC3CC(CC(C3)C1)C2` [3a, 1-(Adamantan-1-yl)-3-(2-fluorophenyl) urea] gave a solubility of 70 to 80 µM (≈ 20.2 to 23.1 µg/mL). Also, in series [2], the “fold more active than 2-hydroxy substituted analog” value is recorded as 37 fold and the “fold more active than unsubstituted 1-(adamantan-1-yl)-3-phenyl urea” value was found to be 4 fold.
In series [3], `O=C(NCC12CC3CC(CC(C3)C1)C2)Nc1ccccc1F` [3b, 1-[(Adamantan-1-yl)methyl]-3-(2-fluorophenyl) urea] displayed a chromatographic logP of 4.4. The compound also came in with a solubility in series [1] of 60 to 70 µM (≈ 18.1 to 21.2 µg/mL).
With `CC(NC(=O)Nc1ccccc1F)C12CC3CC(CC(C3)C1)C2` (stereo not shown) [3c, 1-[1-(Adamantan-1-yl)ethyl]-3-(2-fluorophenyl) urea], the chromatographic logP in series [3] was 4.75. The solubility in series [1] lay within 50 to 60 µM (≈ 15.8 to 19 µg/mL). In addition, the “fold drop of activity compared to 3a” value in series [2] was 15 fold.
Compound `CCC(CC12CC3CC(CC(C3)C1)C2)NC(=O)Nc1ccccc1F` (stereo not shown) [3d, 1-[1-(Adamantan-1-yl)butane-2-yl]-3-(2-fluorophenyl) urea] showed a chromatographic logP in series [3] of 5.8. In series [1], this compound came in with a solubility of 50 to 60 µM (≈ 17.2 to 20.7 µg/mL). For the same compound, in series [2], the “fold drop of activity compared to 3a” value is given as 170 fold.
Compound `O=C(Nc1ccc(C23CC4CC(CC(C4)C2)C3)cc1)Nc1ccccc1F` [3e, 1-[4-(Adamantan-1-yl)phenyl]-3-(2-fluorophenyl) urea] registered a solubility in series [1] of 80 to 90 µM (≈ 29.2 to 32.8 µg/mL).
With `CC12CC3CC(C1)CC(NC(=O)Nc1ccccc1F)(C3)C2` [3f, 1-[3-methyl(Adamantan-1-yl)]-3-(2-fluorophenyl) urea], the solubility in series [1] fell in the range of 50 to 60 µM (≈ 15.1 to 18.1 µg/mL). The “fold increase of activity compared to 3a” value in series [2] is given as 2.5 fold.
Consider `CC12CC3(C)CC(C)(C1)CC(NC(=O)Nc1ccccc1F)(C2)C3` [3h, 1-[3,5,7-trimethyl(Adamantan-1-yl)]-3-(2-fluorophenyl) urea], for which the solubility in series [1] was in the range of 70 to 80 µM (≈ 23.1 to 26.4 µg/mL). In addition, the “fold drop of activity compared to 3a” value in series [2] turned out to be 25 fold.
Take `O=C(Nc1ccccc1F)NC1C2CC3CC(C2)CC1C3` (stereo not shown) [3i, 1-(Adamantan-2-yl)-3-(2-fluorophenyl) urea]: the solubility in series [1] fell in the range of 80 to 90 µM (≈ 23.1 to 26 µg/mL). The “fold increase of activity compared to 3a” value in series [2] amounted to 3.7 fold.
Turning to `CCCC(CNC(=O)Nc1ccccc1F)C1C2CC3CC(C2)CC1C3` (stereo not shown) [3j, 1-[2-(Adamantan-2-yl)pentane-1-yl]-3-(2-fluorophenyl) urea], the chromatographic logP in series [3] was found to be 6.55.
